Assay [1] concerns LTB4 (5-LOX pathway) in HT-29 cells. Description: Competitive ELISA for LTB4 in HT-29 cells. Type of assay: cell-based. The following applies: Homo sapiens, 3 μg/mL, 48 hrs, read-out: inhibition of LTB4 production in HT-29 cells. Here is the method: A Soliprin™ formulation (80:20) was prepared as described in Example 9. (See also Example 14 of U.S. patent application Ser. […] The sample was titrated in tissue culture media containing THP-1 or HT-29 cells; monocyte cell lines that express COX-1, COX-2 and 5-LOX. A competitive ELISA for Leukotriene B4 (LTB4; Neogen, Inc., Cat #406110) was used to assess the effect of this Soliprin™ formulation on newly synthesized levels of LTB4 present in each cell line as a measure Soliprin™'s inhibitory effect on the 5-LOX pathway. The assay was performed in duplicate by adding 160,000 to 180,000 cells per well in 6-well plates. […] Each treated cell line was then harvested by centrifugation and disrupted by gentle dounce homogenization lysis in physiological buffers.
(In general: An ELISA detects its analyte on a solid surface through an enzyme-linked reagent.)

Assay [2] has as its system prostaglandin endoperoxide synthase. As to conditions: Kalkbrenner et al. (1992); cited from earlier work.
Assay [3] deals with cox-2 gene transcription in human colon cancer DLD-1 cells. The following applies: Mutoh et al. (2000), read-out: IC50 suppression of cox-2 gene transcription; cited from earlier work.
Another assay deals with COX-1. The following applies: cited from earlier work.
Another assay addresses T1, recombinant ovine COX-1 (Ovis aries, UniProt P05979).
T1 sequence (P05979 25-600): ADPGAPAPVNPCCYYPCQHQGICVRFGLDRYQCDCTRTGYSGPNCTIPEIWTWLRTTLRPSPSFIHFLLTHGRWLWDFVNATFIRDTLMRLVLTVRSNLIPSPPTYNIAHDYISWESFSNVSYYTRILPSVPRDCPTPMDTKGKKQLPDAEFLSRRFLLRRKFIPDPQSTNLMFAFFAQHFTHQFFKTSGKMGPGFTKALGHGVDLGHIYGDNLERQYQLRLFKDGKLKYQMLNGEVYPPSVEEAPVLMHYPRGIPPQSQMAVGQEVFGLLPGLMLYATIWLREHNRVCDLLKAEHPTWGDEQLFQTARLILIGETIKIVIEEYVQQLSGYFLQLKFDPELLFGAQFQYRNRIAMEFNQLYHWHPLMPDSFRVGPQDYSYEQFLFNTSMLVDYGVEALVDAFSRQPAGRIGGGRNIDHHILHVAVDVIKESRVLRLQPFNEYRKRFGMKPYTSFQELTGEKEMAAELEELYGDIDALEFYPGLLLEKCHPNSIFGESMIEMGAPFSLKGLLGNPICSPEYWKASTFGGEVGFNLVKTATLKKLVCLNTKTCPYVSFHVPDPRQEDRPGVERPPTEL
The assay is described as follows: Inhibition of COX-1 peroxidase activity, TMPD assay (Example 3). It is filed as biochemical. The text has this:
(§1) In order to screen for compounds that inhibited the COX-1 and COX-2 activities, a high throughput, in vitro assay was developed that utilized the inhibition of the peroxidase activity of both enzymes. […] Briefly, the composition or compound being examined was titrated against a fixed amount of COX-1 and COX-2 enzymes. A cleavable, peroxide chromophore was included in the assay to visualize the peroxidase activity of each enzyme in presence of arachidonic acid as a cofactor. Typically, assays were performed in a 96-well format. Each inhibitor, taken from a 10 mg/mL stock solution in 100% DMSO, was tested in triplicate at room temperature using the following range of concentrations: 0, 0.1, 1, 5, 10, 20, 50, 100, and 500 μg/mL. […] The components were mixed for 10 seconds on a rotating platform, followed by the addition of 20 μL of 2 mM N,N,N′N′-tetramethyl-p-phenylenediamine dihydrochloride (TMPD) and 20 μL of 1.1 mM arachidonic acid to initiate the reaction. The plate was shaken for 10 seconds and then incubated 5 minutes before reading the absorbance at 570 nm. The inhibitor concentration vs. % inhibition was plotted and the IC50 determined by taking the half-maximal point along the isotherm and intersecting the concentration on the X-axis. The IC50 was then normalized to the number of enzyme units in the assay.

The target of a further assay is T2, recombinant ovine COX-2 (Ovis aries, UniProt P79208).
T2 construct: purchased Cayman
T2 sequence (P79208 17-603): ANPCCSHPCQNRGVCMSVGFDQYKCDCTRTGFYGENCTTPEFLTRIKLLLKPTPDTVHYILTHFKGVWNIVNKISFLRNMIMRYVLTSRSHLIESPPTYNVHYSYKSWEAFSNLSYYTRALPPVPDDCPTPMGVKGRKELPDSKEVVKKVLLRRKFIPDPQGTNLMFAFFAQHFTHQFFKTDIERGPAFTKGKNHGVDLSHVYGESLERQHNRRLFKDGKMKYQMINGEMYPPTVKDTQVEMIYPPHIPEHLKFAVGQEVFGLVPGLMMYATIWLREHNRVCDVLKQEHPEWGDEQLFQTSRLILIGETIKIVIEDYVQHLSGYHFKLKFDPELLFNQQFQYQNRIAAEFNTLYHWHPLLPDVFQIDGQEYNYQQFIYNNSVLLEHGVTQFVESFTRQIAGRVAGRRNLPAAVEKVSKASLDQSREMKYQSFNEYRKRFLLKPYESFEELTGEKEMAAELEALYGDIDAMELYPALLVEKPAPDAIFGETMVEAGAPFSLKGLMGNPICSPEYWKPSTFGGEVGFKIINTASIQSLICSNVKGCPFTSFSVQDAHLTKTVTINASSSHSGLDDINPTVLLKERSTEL
Description: Inhibition of COX-2 peroxidase activity, TMPD assay (Example 3). It is filed as biochemical. As to conditions: IC50 normalized to the number of enzyme units.
From the text: as §1

Assay [4] has as its system carrageenin-induced mouse paw edema. As to conditions: oral administration, 100 mg/kg; Min et al. (1999); cited from earlier work.

Structures are written as SMILES. Where two headings read alike, the source gives them in different places.

With `CC(C)Cc1ccc(C(C)C(=O)O)cc1` (stereo not drawn) [Ibuprofen, ibuprofen], in assay [1], the inhibition (commonly the drop in the measured response relative to a control, in per cent) at 3 µg/mL is 20%. In the case of `Oc1cc(O)c2c(c1)OC(c1ccc(O)c(O)c1)C(O)C2` (stereo not drawn) [Catechin], the IC50 (in general, the point on the concentration scale where inhibition reaches its midpoint) in assay [2] was 40 µM; in assay [3], 415 µM; with COX-1 (isolated from the bark of Ceiba pentandra, Noreen et al. (1998) J. Nat. Prod. 61:8-12) it was 80 µM. In the case of `O=C(O)[C@H]1O[C@@H](Oc2cc3oc(-c4ccccc4)cc(=O)c3c(O)c2O)[C@H](O)[C@@H](O)[C@@H]1O` [Baicalin], the “IC50 for COX-1” value at recombinant ovine COX-1 (peroxidase activity, IC50 normalized to the number of enzyme units) is reported as 0.44 μg/mL/unit of enzyme. Besides, the “IC50 for COX-2” value on recombinant ovine COX-2 is 0.28 μg/mL/unit.

On to `Oc1ccc([C@H]2Oc3cc(O)cc(O)c3C[C@H]2O)cc1` [Epiafzelechin], for which the “anti-inflammatory activity against carrageenin-induced mouse paw edema” value in assay [4] was “demonstrated anti-inflammatory activity”. In the assay on COX-1 (isolated from Celastrus orbiculatus, Min et al. (1999)), the IC50 is 15 µM. For the molecule `COc1c(O)cc(O)c2c(=O)cc(-c3ccccc3)oc12` [Wogonin], the “Inhibition of COX-1” value on recombinant ovine COX-1 (purified Free-B-Ring flavonoids, concentration not given) came to 16%.
